Laboratory results taken from patent US9694005B2, “Nonsteroidal and steroidal compounds with potent androgen receptor down-regulation and anti prostate cancer activity” (University of Maryland, Baltimore, priority 2013, dated 2017).
Like-named read-outs stand apart in the source and are kept apart here.

Assays:
LNCaP cells = assay: Cell growth inhibition (MTT colorimetric assay), LNCaP; format: cell-based, human; conditions: Homo sapiens
Protocol: (§1) Compounds were evaluated on their ability to inhibit LNCaP cell (androgen sensitive AR-mutant), C4-2B and CWR22Rv1 (CRPC cell lines) viability at 1 and 10 μM concentrations by the MTT assy.
(§2) The cells were seeded in 96-well plates (Corning Costar) at a density of 5×10^3 cells per well. Cells were allowed to adhere to the plate for 24 hours and then treated with various concentrations of compounds dissolved in 95% EtOH. Cells were treated for 7 days with renewal of test compound and media on day 4. On the 7th day, medium was renewed and MTT (3-(4,5-dimethylthiazol-2-yl)-2,5-diphenyl-2H-tetrazolium bromide) (Sigma, St Louis, Mo., USA) solution (0.5 mg MTT per ml of media) was added to the medium such that the ratio of MTT: medium was 1:10. The cells were incubated with MTT for 2 hours. The medium was then aspirated and DMSO was added to solubilize the violet MTT-formazan product. The absorbance at 562 nm was measured by spectrophotometry (Biotek Inc.).

[1] = system: LNCaP cell, C4-2B and CWR22Rv1; assay: Cell growth inhibition (MTT), anticancer activity, cell line not given; format: cell-based, human; conditions: cell line not stated
Protocol: as §1

AR protein = target: T1, AR protein (Homo sapiens, UniProt P10275, T878A); assay: Western blotting, AR protein levels in LNCaP cells; format: cell-based; conditions: 15 μM of each compound for 24 h (FIG. 8)
T1 construct: Effect of compounds on suppression of AR protein levels in LNCaP cells; endogenous in cells; host or cells: LNCaP
T1 sequence (P10275 1-920 T878A): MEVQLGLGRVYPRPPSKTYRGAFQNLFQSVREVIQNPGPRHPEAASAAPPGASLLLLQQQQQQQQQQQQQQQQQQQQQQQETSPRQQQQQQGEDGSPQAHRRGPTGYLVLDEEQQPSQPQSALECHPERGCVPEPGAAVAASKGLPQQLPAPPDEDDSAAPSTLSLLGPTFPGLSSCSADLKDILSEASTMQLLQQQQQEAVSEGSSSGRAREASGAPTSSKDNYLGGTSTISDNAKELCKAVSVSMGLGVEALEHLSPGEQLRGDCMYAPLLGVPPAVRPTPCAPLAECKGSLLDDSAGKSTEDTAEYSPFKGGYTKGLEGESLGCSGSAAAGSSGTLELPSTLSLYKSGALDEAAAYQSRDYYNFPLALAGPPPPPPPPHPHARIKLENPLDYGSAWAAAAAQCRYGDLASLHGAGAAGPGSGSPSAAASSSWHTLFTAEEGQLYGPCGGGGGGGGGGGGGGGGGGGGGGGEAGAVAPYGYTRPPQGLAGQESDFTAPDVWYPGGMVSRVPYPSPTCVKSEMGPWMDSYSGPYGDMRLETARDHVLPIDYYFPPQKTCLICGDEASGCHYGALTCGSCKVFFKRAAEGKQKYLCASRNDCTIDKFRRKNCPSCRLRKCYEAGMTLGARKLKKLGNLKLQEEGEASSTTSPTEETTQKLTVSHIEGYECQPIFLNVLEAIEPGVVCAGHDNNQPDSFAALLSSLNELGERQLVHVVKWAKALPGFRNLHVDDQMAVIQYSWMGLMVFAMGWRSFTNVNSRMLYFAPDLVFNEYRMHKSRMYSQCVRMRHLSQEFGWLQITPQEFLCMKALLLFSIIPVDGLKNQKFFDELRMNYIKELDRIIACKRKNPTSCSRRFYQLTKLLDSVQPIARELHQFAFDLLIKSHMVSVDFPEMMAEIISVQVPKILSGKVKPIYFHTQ
Protocol: The ability of various compounds to down-regulate AR protein expressions was determined by western blotting.

[2] = system: full length AR and the splice variants ARs; assay: AR down-regulation in CWR22Rv1 (FIGS. 9D, 9E, 9F); format: cell-based, human; conditions: 9E and 9F
Protocol: (§3) In the experiments show in FIG. 9, LNCaP and CWR22Rv1 cells were treated VN/124-1 and analogs at varying time points and effects on significant cancer cells promoting genes investigated at the protein level.

CWR22Rv1 = assay: Cell growth inhibition (MTT colorimetric assay), CWR22Rv1; format: cell-based; conditions: Homo sapiens
Protocol: as §1, §2

[3] = system: N-Cadherin, AR3, Mnk1/2, MMP-2, Ezh2, Mc1-1, eIF4E phosphorylation in CWR22Rv1 cells; assay: Effects of compounds on oncogenes at the protein level, CWR22Rv1 cells; format: cell-based, human; conditions: FIGS. 9B and 9G
PC3 cells = assay: Cell migration of PC3 cells; format: cell-based, human; conditions: 5 μM, after 12 hours; FIG. 10
[4] = system: PARP cleavage, CDC25c, Mnk2, Cyclin D1, Cox-2 and N-Cadherin in LNCaP cells; assay: Effects of compounds on oncogenes at the protein level, LNCaP cells; format: cell-based, human; conditions: FIGS. 9A and 9C
Protocol: as §3

full length AR = assay: AR down-regulation (FIG. 9H); format: cell-based, human
[5] = LNCaP, 168 h, Steroidal VNPP compounds table, treated for 7 days, read-out: GI50 Values High Passage LNCaP
[6] = Table 10, LNCaP low passage, concentration required to inhibit cell growth by 50%, read-out: GI50 Values LNCaP (Low Passage)
[7] = CWR22Rv1, 168 h, Non-steroidal VNPP compounds table, treated for 7 days
[8] = LNCaP, 168 h, Non-steroidal VNPP compounds table, treated for 7 days, read-out: GI50 Values High Passage LNCaP
[9] = LNCaP, 168 h, Non-steroidal VNPP compounds table, treated for 7 days, read-out: GI50 Values Low Passage LNCaP
[10] = CWR22Rv1, 168 h, Steroidal VNPP compounds table, treated for 7 days
[11] = LNCaP, 168 h, Steroidal VNPP compounds table, treated for 7 days, read-out: GI50 Values Low Passage LNCaP
[12] = Table 10, LNCaP high passage, read-out: GI50 Values LNCaP (High Passage)

CNC(=O)c1ccc(N2C(=S)N(c3ccc(C#N)c(C(F)(F)F)c3)C(=O)C2(C)C)cc1F [MDV3100, reference compound]
GI50 (LNCaP cells; [5]): 4.85 µM | GI50 (LNCaP cells; [6]): 4.85 µM

C[C@]12CCC3c4ccc(O)cc4CCC3C1CC=C2n1cnc2ccccc21 (stereo partly drawn) [VNPP338]
Anticancer activity (SAR statement) [1]: equal potent anticancer activity to compound VN/124-1 | AR down-regulating action (AR protein levels, western blot) (AR protein): potent AR down-regulating agents | AR down-regulation against full length AR and the splice variants ARs [2]: showed activity (AR down-regulation)

C[C@]12CCC3c4ccc(C(=O)O)cc4CCC3C1CC=C2n1cnc2ccccc21 (stereo partly drawn) [VNPP341]
Anticancer activity (SAR statement) [1]: moderately acting | AR down-regulating action (AR protein levels, western blot) (AR protein): AR up-regulators | AR down-regulation against full length AR and the splice variants ARs [2]: showed activity (AR down-regulation)

COc1cccc(-c2ccc(Cn3cnc4ccccc43)cc2)c1 [VNPP347B, 3-[4-(benzimidazolylmethyl)phenyl]-1-methoxybenzene]
GI50 (CWR22Rv1; [7]): 14 µM | GI50 (LNCaP cells; [8]): 4.41 µM

N#Cc1cccc(-c2ccc(Cn3cnc4ccccc43)cc2)c1 [VNPP358, 3-[4-(benzimidazolylmethyl)phenyl]benzenecarbonitrile]
GI50 (CWR22Rv1; [7]): 10.5 µM | GI50 (LNCaP cells; [8]): 3.5 µM | GI50 (LNCaP cells; [9]): 3.71 µM

c1cc(-c2ccc(Cn3cnc4ccccc43)cc2)cc(-c2nn[nH]n2)c1 [VNPP361, 5-{3-[4-(benzimidazolylmethyl)phenyl]phenyl}-1H-1,2,3,4-tetraazole]
melting point: 231 to 233 °C

c1cc(-c2ccc(CCn3cnc4ccccc43)cc2)cc(-c2nn[nH]n2)c1 [VNPP364, 5-{3-[4-(benzimidazolylethyl)phenyl]phenyl}-1H-1,2,3,4-tetraazole]
melting point: 223 to 225 °C

Oc1ccc2cc(-c3cccc(-n4cnc5ccccc54)c3)ccc2c1 [VNPP372/2, 6-(3-benzimidazolylphenyl)naphthalen-2-ol]
GI50 (CWR22Rv1; [7]): 8.91 µM | GI50 (LNCaP cells; [8]): 6.09 µM | GI50 (LNCaP cells; [9]): 5.77 µM

C[C@]12CC[C@H](OC(=S)n3ccnc3)CC1=CCC1C2CC[C@]2(C)C(n3cnc4ccccc43)=CCC12 (stereo partly drawn) [VNPP397, 3β-(1H-imidazole-1-thiocarboxylate)-17-(1H-benzimidazol-1-yl)androsta-5,16-diene]
GI50 (CWR22Rv1; [10]): 7.52 µM | GI50 (LNCaP cells; [5]): 9.57 µM

CO[C@H]1CC[C@@]2(C)C(=CC[C@@H]3[C@@H]2CC[C@]2(C)C(n4cnc5ccccc54)=CC[C@@H]32)C1 [VNPP412, 3β-(methoxy)-17-(1H-benzimidazol-1-yl) androsta-5,16-diene]
GI50 (CWR22Rv1; [10]): 7.5 µM | GI50 (LNCaP cells; [5]): 8.71 µM

C[C@]12CC[C@H](OCc3ccncc3)CC1=CC[C@@H]1[C@@H]2CC[C@]2(C)C(n3cnc4ccccc43)=CC[C@@H]12 [VNPP414, 3β-(pyridine-4-ylmethoxy)-17-(1H-benzimidazol-1-yl) androsta-5,16-diene]
GI50 (CWR22Rv1; [10]): 3.24 µM | GI50 (CWR22Rv1; CWR22Rv1, Table 10): 3.24 µM | Phosphorylation of eIF4E [3]: downregulated | Protein expression of N-Cadherin, AR3, Mnk1/2, MMP-2, Ezh2, Mc1-1 [3]: decreased | Migration of PC3 cells (PC3 cells): profoundly inhibit migration | GI50 (LNCaP cells; [5]): 2.45 µM | GI50 (LNCaP cells; [11]): 0.87 µM | GI50 (LNCaP cells; [12]): 2.45 µM | GI50 (LNCaP cells; [6]): 0.87 µM | Expression of CDC25c, Mnk2, Cyclin D1, Cox-2 and N-Cadherin [4]: reduced | PARP cleavage (signature of apoptosis) [4]: significant increase

COc1ccc(S(=O)(=O)Nc2cccc(-n3cnc4ccccc43)c2)cc1 [VNPP431, (3-benzimidazolylphenyl)[(4-methoxyphenyl)sulfonyl]amine]
GI50 (CWR22Rv1; [7]): 4.78 µM | GI50 (LNCaP cells; [8]): 3.14 µM | GI50 (LNCaP cells; [9]): 5.23 µM

C[C@]12CC[C@H](n3cnc4ccccc43)CC1=CC[C@@H]1[C@@H]2CC[C@]2(C)C(n3cnc4ccccc43)=CC[C@@H]12 [VNPP433 (A2), 3β-(1H-benzimidazol-1-yl)-17-(1H-benzimidazol-1-yl)androsta-5,16-diene]
AR down-regulation against full length AR (full length AR): activity (AR down-regulation)

C[C@]12CC[C@@H](n3ccnc3)CC1=CC[C@@H]1[C@@H]2CC[C@]2(C)C(n3cnc4ccccc43)=CC[C@@H]12 [VNPP433-3α, 3α-(1H-imidazol-1-yl)-17-(1H-benzimidazol-1-yl) androsta-5,16-diene]
GI50 (CWR22Rv1; [10]): 9.88 µM | AR down-regulation against full length AR (full length AR): activity (AR down-regulation) | GI50 (LNCaP cells; [5]): 8.91 µM | GI50 (LNCaP cells; [11]): 4.04 µM

C[C@]12CC[C@H](n3ccnc3)CC1=CC[C@@H]1[C@@H]2CC[C@]2(C)C(n3cnc4ccccc43)=CC[C@@H]12 [VNPP433-3β, 3β-(1H-imidazol-1-yl)-17-(1H-benzimidazol-1-yl) androsta-5,16-diene]
GI50 (CWR22Rv1; [10]): 2.54 µM | GI50 (CWR22Rv1; CWR22Rv1, Table 10): 2.54 µM | AR down-regulation against full length AR (full length AR): activity (AR down-regulation) | GI50 (LNCaP cells; [5]): 1.64 µM | GI50 (LNCaP cells; [11]): 0.81 µM | GI50 (LNCaP cells; [12]): 1.64 µM | GI50 (LNCaP cells; [6]): 0.81 µM

C[C@]12CCC3CC31[C@H](n1ccnc1)CC1C3CC=C(n4cnc5ccccc54)C3CCC12 (stereo partly drawn) [VNPP433-6β, 6β-imidazol-1yl-3,5-cycloandrostan-17-benzimidazole-1-yl-16-ene]
GI50 (CWR22Rv1; [10]): 12.3 µM | AR down-regulation against full length AR (full length AR): activity (AR down-regulation) | GI50 (LNCaP cells; [5]): 6.61 µM
